Measurements from ChEMBL document CHEMBL3988442, “University of Dundee, Small-Polar-MMV Screening Library” (2021).
Where “and” joins values, the source holds several entries; their conditions need not be identical. Identical values can stand only once.

Legend:
Shiga toxin 2 = target: T1, Shiga toxin 2 (Escherichia coli O157:H7, UniProt P09385+P09386); assay: E. coli 0.157:H7 Shiga Toxin SOP - stx2 screening assay; assay type: functional
T1 sequence (P09385 whole entry): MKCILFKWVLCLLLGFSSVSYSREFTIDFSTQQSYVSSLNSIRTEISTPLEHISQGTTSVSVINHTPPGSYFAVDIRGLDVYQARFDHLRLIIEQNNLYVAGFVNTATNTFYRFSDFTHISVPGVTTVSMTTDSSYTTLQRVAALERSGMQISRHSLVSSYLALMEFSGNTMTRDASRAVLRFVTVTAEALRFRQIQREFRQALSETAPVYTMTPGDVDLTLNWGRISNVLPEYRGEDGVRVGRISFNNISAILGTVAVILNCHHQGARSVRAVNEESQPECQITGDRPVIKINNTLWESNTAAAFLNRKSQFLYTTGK
T1 sequence (P09386 whole entry): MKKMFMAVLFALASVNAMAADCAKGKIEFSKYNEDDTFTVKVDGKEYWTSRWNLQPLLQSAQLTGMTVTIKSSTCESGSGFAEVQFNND

[1] = target: Protein translocase subunit SecA (Escherichia coli (strain K12), UniProt P10408); assay: Assay to Identify E. coli SecA ATPase Inhibitors; assay type: functional
Protein translocase subunit SecA, sequence (P10408 whole entry): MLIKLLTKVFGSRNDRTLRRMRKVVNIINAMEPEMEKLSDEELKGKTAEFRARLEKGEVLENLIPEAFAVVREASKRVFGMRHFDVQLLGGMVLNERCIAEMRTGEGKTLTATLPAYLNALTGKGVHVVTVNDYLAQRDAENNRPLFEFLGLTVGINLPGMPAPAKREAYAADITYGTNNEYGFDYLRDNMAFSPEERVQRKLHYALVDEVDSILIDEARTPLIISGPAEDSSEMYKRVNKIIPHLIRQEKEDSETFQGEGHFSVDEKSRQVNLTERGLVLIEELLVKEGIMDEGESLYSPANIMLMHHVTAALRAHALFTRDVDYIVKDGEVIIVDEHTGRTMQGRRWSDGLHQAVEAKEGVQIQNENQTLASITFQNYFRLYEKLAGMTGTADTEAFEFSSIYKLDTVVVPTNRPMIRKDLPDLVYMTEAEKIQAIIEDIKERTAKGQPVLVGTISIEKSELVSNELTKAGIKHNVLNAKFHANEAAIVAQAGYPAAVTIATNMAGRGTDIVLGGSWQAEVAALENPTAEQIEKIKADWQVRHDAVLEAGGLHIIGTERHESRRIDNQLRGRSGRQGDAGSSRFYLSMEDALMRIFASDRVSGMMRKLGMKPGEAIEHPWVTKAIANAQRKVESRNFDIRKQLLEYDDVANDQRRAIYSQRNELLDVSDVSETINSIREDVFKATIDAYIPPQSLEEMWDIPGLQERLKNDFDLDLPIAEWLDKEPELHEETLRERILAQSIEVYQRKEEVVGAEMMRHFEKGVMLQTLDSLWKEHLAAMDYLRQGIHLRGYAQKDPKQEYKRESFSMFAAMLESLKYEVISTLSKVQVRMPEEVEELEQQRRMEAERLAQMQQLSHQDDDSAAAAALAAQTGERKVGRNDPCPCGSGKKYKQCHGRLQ

## O=C(Cc1cccc(Cl)c1)N[C@@H]1CCNC[C@H]1O
Shiga toxin 2
  IC50: > 100 µM and 21.3 µM

## Cc1ccc2c(ccn2CCC(=O)O)c1
[1]
  IC50: > 100 µM

## COCc1c(C(=O)NC2CCCC2)nnn1-c1ccc(C)cc1
[1]
  IC50: > 100 µM

## CCCc1c(C(=O)NC2CCCC2)nnn1-c1ccc(OC)cc1
[1]
  IC50: > 100 µM

## CC(C)c1cc(C(F)(F)F)n2nc(CCC(=O)O)nc2n1
Shiga toxin 2
  IC50: > 100 µM

## CCn1cc(CN(C)S(=O)(=O)c2cnn(CC)c2C)c(C)n1
[1]
  IC50: > 100 µM

## O=S(=O)(c1ccccc1)N1CCCCC1c1cc[nH]n1 (stereo not given)
Shiga toxin 2
  IC50: > 100 µM

## Cc1nc(C(=O)N2CCC(Cc3cnc4[nH]ccc4c3)C2)co1 (stereo not given)
Shiga toxin 2
  IC50: > 100 µM

## NCc1cn(-c2ccccc2C(=O)NCc2cccc(Cl)c2)cn1
Shiga toxin 2
  IC50: > 100 µM

## Cc1cc(-c2cnn(CCNC(=O)C3CC3)c2C2CC2)on1
Shiga toxin 2
  IC50: > 100 µM

## O=C1CN(Cc2ccc(-c3ccccc3C(=O)O)cc2)CCN1
Shiga toxin 2
  IC50: > 100 µM

## Cn1cc(C(=O)N2CCC(Cc3nccs3)CC2)cn1
Shiga toxin 2
  IC50: > 100 µM

## Nc1cc(CCC2CN(Cc3ccc(C(=O)O)cc3)CCO2)ccn1 (stereo not given)
Shiga toxin 2
  IC50: > 100 µM

## COc1ccccc1CC(=O)N1CC[C@@]2(CCCO2)[C@@H](OC)C1
Shiga toxin 2
  IC50: > 100 µM

## Cc1nccn1-c1cccc(C2CCCN2S(=O)(=O)c2cn(C)cn2)n1 (stereo not given)
Shiga toxin 2
  IC50: > 100 µM

## COc1ccc(C)cc1CN(C)Cc1nc2c(cnn2C)c(=O)[nH]1
Shiga toxin 2
  IC50: > 100 µM

## CCOc1ccnc(N2CCN(C(=O)c3cccc(C#N)c3)CC2)n1
Shiga toxin 2
  IC50: > 100 µM

## COCCN1CCN(CCS(=O)(=O)C(F)(F)F)CC1C (stereo not given)
Shiga toxin 2
  IC50: 32.8 µM and 33 µM

## CC(C)(C)NC(=O)NC(=O)CNC(C)(C)c1ccc2c(c1)OCCO2
Shiga toxin 2
  IC50: > 100 µM

## CCNC(=O)Nc1ccc2c(ccn2CC(=O)N(CC)CC)c1
[1]
  IC50: > 100 µM

## COc1c(CNC(c2ccc(F)cc2)C(C)(C)C)c(C)nn1C (stereo not given)
Shiga toxin 2
  IC50: > 100 µM

## CN(Cc1ccsc1)C(=O)CS(=O)(=O)Cc1ccc(Cl)c(Cl)c1
Shiga toxin 2
  IC50: > 100 µM

## CCOc1ccccc1C(=O)N1CCCC1c1ncc2c(n1)CCNC2 (stereo not given)
Shiga toxin 2
  IC50: > 100 µM

## COc1ncc(C2(O)CCN(Cc3c(F)cccc3F)CC2)c(OC)n1
Shiga toxin 2
  IC50: > 100 µM

## CCOC(=O)c1sc2ccsc2c1CN
Shiga toxin 2
  IC50: > 100 µM
